Source: patent US20250134907A1, “FUSED DIAZEPINES AS AGONISTS OF THE INSULIN-LIKE 3 (INSL3) PEPTIDE RECEPTOR RXFP2 AND METHODS OF USE THEREOF” (The United States of America,as represented by the …, priority 2022, published 2025)
Bridges are numbered along the chain shown (N, C = ends). Roman numbers before positions name the chains, in order. Where no end group is shown, it is not given here.

Legend:
[1] = target: T1, RXFP2 (Homo sapiens, UniProt Q8WXD0); test: HTRF cAMP assay in HEK293T cells stably expressing RXFP2 (HEK-RXFP2); assay type: cell-based; details: for % EFF vs. 1 nM INSL3 (b): normalized to 1 nM INSL3 cAMP response; for % EFF vs. 100 nM INSL3 (c): normalized to 100 nM INSL3 cAMP response
T1 construct: expressed in transfected cells
Outline: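 HEK-RXFP2 cells in serum-free DMEM were treated with compound up to 25 μM for 1 h at 37°C, and cAMP was read by HTRF immunoassay. Condition (a): 20,000 cells/well, 200 μM IBMX, normalized to 1 nM INSL3. Condition (b): 10,000 cells/well, 1 nM INSL3. Condition (c): 7,500 cells/well, no IBMX, 100 nM INSL3.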

[2] = target: T1, RXFP2; test: Luciferase cAMP assay in HEK-CRE-Luc-RXFP2 cells; assay type: cell-based
Experimental: A confirmatory cAMP assay was done to eliminate false positives using a HEK293T-CRE-Luc cell line stably transfected with RXFP2 (HEK-CRE-Luc-RXFP2), as this cell line expresses luciferase under the control of the cAMP response element (CRE). Activation of the RXFP2 receptor increases intracellular cAMP levels, inducing luciferase transcription in the nucleus. Thus, luciferase activity in these cells is proportional to cAMP accumulation. For this assay, cells were seeded in 96-well flat-bottom opaque plates at 20,000 cells/well in 60 μL/well of serum-free DMEM medium and allowed to attach overnight at 37° C., 5% CO2. The next morning, cells were treated with 1 μL/well of compound (25 μM-0.21 nM), 1 μM forskolin, or DMSO vehicle. Cells were also treated with 4 μL of INSL3 (100-0.01 nM) (Phoenix Pharmaceuticals, Burlingame, CA) or vehicle serum-free DMEM. Cells were incubated with the treatments for 3 hours at 37° C., 5% CO2, then rested 30 minutes at room temperature for equilibration, after which 65 μL/well of substrate AMPLITE™ Luciferase Reporter Gene Assay Kit (AAT Bioquest, Sunnyvale, CA) was added. Plates were incubated for 40 minutes at room temperature protected from light, and then luciferase output was read on a CLARIOstar plate reader (BMG Labtech, Germany). […]

[3] = system: HEK293T cells; test: CellTiter-Glo cytotoxicity assay in HEK293T cells; assay type: cell-based, human; details: 24 h, 25 μM and 8.3 μM
Experimental: (§1) Cytotoxicity induced by the compounds in HEK293T cells and primary human calvarial osteoblasts (HCO) (ScienCell Research Laboratories, San Diego, CA) were tested using the […]-GLO™ Luminescent Cell Viability Assay (Promega, Madison, WI). This is a luminescence-based assay that determines viable cells by measuring cellular adenosine triphosphate (ATP) production. The luciferase enzyme requires ATP to catalyze the conversion of beetle luciferin to oxyluciferin and light. Thus, luciferase activity is proportional to ATP accumulation in the cells. For this assay, 96-well flat-bottom opaque plates seeded with HEK293T cells at 5,000 cells/well and HCO cells at 3,000 cells/well in 100 μL/well of growth medium (DMEM, 10% FBS, 1× Penicillin/Streptomycin). After incubating overnight at 37° C., 5% CO2 to allow attachment, cells were treated with 1 μL/well of compound (25-0.1 μM) or DMSO vehicle and incubated an additional 24 hours. Then cells were equilibrated for 30 minutes at room temperature and 100 μL/well of […]-GLO™ Reagent was added. Plates were placed on an orbital shaker for 2 minutes and incubated at room temperature for 10 minutes to stabilize the luminescent signal, which was read immediately after on a CLARIOstar plate reader (BMG Labtech, Germany). […] The HEK293T results represent the means±SEM of 3 technical replicates. The HCO results represent the means±SEM of 3 independent experiments.

[4] = system: primary human calvarial osteoblasts (HCO); test: CellTiter-Glo cytotoxicity assay in HCO cells; assay type: cell-based; details: 24 h
Experimental: as §1

[5] = target: T2, WT RXFP2 (Homo sapiens, UniProt Q8WXD0); test: HTRF cAMP assay in HEK293T cells transiently transfected with WT RXFP2; assay type: cell-based
T2 construct: using full-length human RXFP1 and RXFP2 receptor constructs; FLAG; expressed in transfected cells; host or cells: HEK293T (transient, Lipofectamine2000)
Description: (§2) To further investigate the involvement of the RXFP2 extracellular and transmembrane domains in agonist activation of the receptor, two complementary chimeras were created using the RXFP1 receptor, which is not activated by the agonists of formula (I), to transiently transfect HEK293T cells and measured changes in cAMP induction using the HTRF assay.
(§3) Chimeric receptors were generated by IN-FUSION™ (Takara Bio USA, Inc., San Jose, CA) mutagenesis using full-length human RXFP1 and RXFP2 receptor constructs. Polymerase chain reaction (PCR) was performed using PfuTurbo high-fidelity DNA polymerase (Agilent Technologies, Santa Clara, CA) and overlapping primers with at least 15 bp sequence homology within the fusion site. PCR products were digested with Dpnl restricton enzyme at 37° C. overnight, run on a 0.8% agarose gel and purified using the GENEJET™ Gel extraction kit (Thermo Scientific, Waltham, MA). The purified DNA fragments were then ligated into the BamHI and XhoI pre-digested pcDNA3.1™/Zeo(+) AmpR mammalian expression vector using the In-Fusion HD enzyme premix (Clontech, Mountain View, CA) at 50° C. for 15 minutes, and the resulting product was used to transform Stellar competent cells (Takara Bio USA, Inc., San Jose, CA). The clones were fully sequenced to confirm the correct fusion of both receptor fragments. Chimera RXFP2-1 contained the extracellular domain of RXFP2 and the transmembrane domain of RXFP1. Accordingly, chimera RXFP1-2 contained the extracellular domain of RXFP1 and the transmembrane domain of RXFP2.
(§4) HEK293T cells were seeded in 6-well flat-bottom clear plates at 0.5 million cells/well in 2 mL/well of growth medium (DMEM, 10% FBS, 1× Pen/Strep) and allowed to attach overnight at 37° C. and 5% CO2. The next morning, cells were transfected with 2 μg of plasmid (chimeric receptors, WT RXFP2, or WT RXFP1) and 6 μl of Lipofectamine2000 (Invitrogen, Waltham, MA) in a total volume of 200 μl/well OPTI-MEM™ I (Thermo Fisher, Waltham, MA) reduced serum medium and allowed to incubate an additional 24 hours. The next day, transfected cells were seeded in 96-well flat-bottom opaque plates at 30,000 cells/well in 60 μL/well of serum-free DMEM medium and allowed to attach overnight at 37° C. at 5% CO2. The next morning, cells were treated with 1 μL/well of compound (25 μM-0.25 nM), 2 μM forskolin, or DMSO vehicle. Cells were also treated with 4 μL of positive control INSL3 (100-0.01 nM), Relaxin2 (100-10 nM), or vehicle (serum-free DMEM+IBMX). Plates were incubated for 1 hour at 37° C. and 5% CO2, after which kit cAMP-d2 and anti-cAMP antibody were added as previously described. Cells were incubated for 1 hour at room temperature, and then the signal was read on a CLARIOstar plate reader (BMG Labtech, Germany).

[6] = system: chimera RXFP2-1 (extracellular domain of RXFP2, transmembrane domain of RXFP1); test: HTRF cAMP assay in HEK293T cells transiently transfected with chimera RXFP2-1; assay type: cell-based, human
Description: as §2, §3, §4

[7] = system: chimera RXFP1-2 (extracellular domain of RXFP1, transmembrane domain of RXFP2); test: HTRF cAMP assay in HEK293T cells transiently transfected with chimera RXFP1-2; assay type: cell-based, human
Description: as §2, §3, §4

[8] = condition (b): 10,000 cells/well, IBMX 200 μM
[9] = condition (c): 7,500 cells/well, IBMX omitted

T1 sequence (Q8WXD0 whole entry): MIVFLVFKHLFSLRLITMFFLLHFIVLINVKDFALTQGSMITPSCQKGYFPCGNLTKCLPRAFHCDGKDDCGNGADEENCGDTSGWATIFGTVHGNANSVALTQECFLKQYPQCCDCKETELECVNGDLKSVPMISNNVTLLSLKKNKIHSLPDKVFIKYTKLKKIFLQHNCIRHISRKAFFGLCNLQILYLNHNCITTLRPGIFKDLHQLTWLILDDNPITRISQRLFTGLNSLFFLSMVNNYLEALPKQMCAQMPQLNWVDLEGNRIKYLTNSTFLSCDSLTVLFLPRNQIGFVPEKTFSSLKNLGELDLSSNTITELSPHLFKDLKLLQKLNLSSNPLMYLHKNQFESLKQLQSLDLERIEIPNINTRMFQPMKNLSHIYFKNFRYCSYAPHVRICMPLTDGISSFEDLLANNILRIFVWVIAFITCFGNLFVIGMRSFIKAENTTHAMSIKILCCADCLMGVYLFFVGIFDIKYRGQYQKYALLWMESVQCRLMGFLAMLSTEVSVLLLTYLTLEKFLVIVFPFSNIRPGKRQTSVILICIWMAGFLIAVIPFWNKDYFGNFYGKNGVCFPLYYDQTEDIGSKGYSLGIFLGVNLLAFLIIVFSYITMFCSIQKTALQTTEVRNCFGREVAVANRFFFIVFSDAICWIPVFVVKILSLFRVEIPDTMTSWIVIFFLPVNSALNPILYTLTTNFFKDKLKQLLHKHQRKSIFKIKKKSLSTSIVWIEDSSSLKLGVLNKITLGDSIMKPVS
T2 sequence (Q8WXD0 whole entry): as above

With `Cc1cc(-c2ccc3c(c2)C(=O)N2CCN(C(=O)COc4ccc(OC(F)(F)F)cc4Br)C[C@H]2C(=O)N3)cc(C(F)(F)F)c1` [Example 153, (S)-2-(2-(2-bromo-4-(trifluoromethoxy)phenoxy)acetyl)-8-(3-methyl-5-(trifluoromethyl)phenyl)-1,3,4,12a-tetrahydrobenzo[e]pyrazino[1,2-a][1,4]diazepine-6,12 (2H, 11H)-dione] the EC50 [1, 8] was 23.6 to 50.2 nM, the “% EFF vs. 1 nM INSL3 (b)” value [1, 8] was 149.80-150.94% and the EC50 [1, 9] was 101 to 319 nM. The “% EFF vs. 100 nM INSL3 (c)” value [1, 9] was 45.16-86.79%, the EC50 ([2]; 3 h treatment, 25 μM-0.21 nM) was 24.6 nM and the “Emax (% Eff vs. 10 nM INSL3)” value ([2]; relative to 10 nM INSL3 response) was 109.6%. For the same compound, the cytotoxicity [3] was “some toxicity”, the cytotoxicity ([4]; 25 μM) was “minimal toxicity” and the cytotoxicity ([4]; lower concentrations than 25 μM) was “not toxic”.

`O=C1Nc2ccc(-c3cc(C4CC4)cc(C(F)(F)F)c3)cc2C(=O)N2CCN(C(=O)COc3ccc(OC(F)(F)F)cc3Br)C[C@@H]12` [Example 191, (S)-2-(2-(2-bromo-4-(trifluoromethoxy)phenoxy)acetyl)-8-(3-cyclopropyl-5-(trifluoromethyl)phenyl)-1,3,4,12a-tetrahydrobenzo[e]pyrazino[1,2-a][1,4]diazepine-6,12 (2H, 11H)-dione] was tested, and the EC50 [1, 9] was 189 nM and the “% EFF vs. 100 nM INSL3 (c)” value [1, 9] was 66.75%.

For `O=C1Nc2ccc(-c3cc(C4CC4)cc(C(F)(F)F)c3)cc2C(=O)N2CCN(C(=O)COc3ccc(OC(F)(F)F)cc3I)C[C@@H]12` [Example 192, (S)-8-(3-cyclopropyl-5-(trifluoromethyl)phenyl)-2-(2-(2-iodo-4-(trifluoromethoxy)phenoxy)acetyl)-1,3,4,12a-tetrahydrobenzo[e]pyrazino[1,2-a][1,4]diazepine-6,12 (2H, 11H)-dione], the EC50 [1, 9] was 77.8 nM and the “% EFF vs. 100 nM INSL3 (c)” value [1, 9] was 77.31%.

`O=C1Nc2ccc(-c3cccc(C(F)(F)F)c3)cc2C(=O)N2CCN(CCOc3ccccc3)CC12` (centres unmarked) [Example 231, 2-(2-phenoxyethyl)-8-(3-(trifluoromethyl)phenyl)-1,3,4,12a-tetrahydrobenzo[e]pyrazino[1,2-a][1,4]diazepine-6,12 (2H, 11H)-dione] was tested, and the “% EFF vs. 1 nM INSL3 (a)” value ([1]; condition (a): 20,000 cells/well, IBMX 200 μM, maximum cAMP response normalized to 1 nM INSL3 response) was 0.04%.

With `O=C1Nc2ccc(-c3cc(C(F)(F)F)cc(C(F)(F)F)c3)cc2CN2CCN(C(=O)COc3ccc(OC(F)(F)F)cc3I)C[C@@H]12` [Example 254, (S)-8-(3,5-bis(trifluoromethyl)phenyl)-2-(2-(2-iodo-4-(trifluoromethoxy)phenoxy)acetyl)-1,3,4,6,11,12a-hexahydrobenzo[e]pyrazino[1,2-a][1,4]diazepin-12 (2H)-one] the EC50 [1, 9] was 8610 nM and the “% EFF vs. 100 nM INSL3 (c)” value [1, 9] was 49.35%.

`O=C1Nc2ccc(-c3cccc(C(F)(F)F)c3)cc2C(=O)N2CCN(C(=O)COc3ccc(C(F)(F)F)cc3Cl)C[C@@H]12` [Example 255, (S)-2-(2-(2-chloro-4-(trifluoromethyl)phenoxy)acetyl)-8-(3-(trifluoromethyl)phenyl)-1,3,4,12a-tetrahydrobenzo[e]pyrazino[1,2-a][1,4]diazepine-6,12 (2H, 11H)-dione] was tested, and the EC50 [1, 8] was 9.7 nM and the “% EFF vs. 1 nM INSL3 (b)” value [1, 8] was 59.15%.

In the case of `O=C1Nc2ccc(-c3cc(O)cc(C(F)(F)F)c3F)cc2C(=O)N2CCN(C(=O)COc3ccc(OC(F)(F)F)cc3Br)C[C@@H]12` [Example 259, (S)-2-(2-(2-bromo-4-(trifluoromethoxy)phenoxy)acetyl)-8-(2-fluoro-5-hydroxy-3-(trifluoromethyl)phenyl)-1,3,4,12a-tetrahydrobenzo[e]pyrazino[1,2-a][1,4]diazepine-6,12 (2H, 11H)-dione], the EC50 [1, 9] is reported as 62.1 nM and the “% EFF vs. 100 nM INSL3 (c)” value [1, 9] is reported as 67.97%.

With “I: PTPEMREKLCGHHFVRALVRVCGGPRWSTEA / II: AAATNPARYCCLSGCTQQDLLTLCPY (disulfide I:10-II:11, I:22-II:24, II:10-II:15) [INSL3]” the Emax ([5]; HEK-293T, normalized to 2 μM forskolin cAMP response as 100% activity) was 78.4 ± 11.2%, the EC50 ([5]; read-out: EC50 (μM or nM)) was 0.0005 ± 0.00035 µM and the “cAMP response of chimera RXFP2-1” value [6] was “levels comparable to WT RXFP2”. The Emax ([6]; RXFP2-1 chimera, normalized to 2 μM forskolin cAMP response as 100% activity) was 92.30 ± 21.82%, the EC50 ([6]; RXFP2-1 chimera, read-out: EC50 (μM or nM)) was 0.00074 ± 0.00061 µM and the “cAMP response of chimera RXFP1-2” value [7] was “did not respond”.
